Consider ten compounds from publication PMC4791575 (ACS Infectious Diseases, 2016).

The conditions of data set [1]: HAT patients; cited from earlier work.
In data set [2] the test system is T. cruzi intracellular amastigotes (Tulahuen strain). Kind of data set: microbe, parasite or virus in culture. The note with it: for T. cruzi pEC50 (within 21%): intracellular amastigotes, Tulahuen strain; for EC50: Trypanosoma cruzi, TULAHUEN, read-out: T. cruzi pEC50 (μM) (within 21%) (converted). It counts as cell-based, Trypanosoma cruzi.
Data set [3] has as its system P. falciparum C235. In words: microbe, parasite or virus in culture. It counts as cell-based, Plasmodium falciparum. The note with it: for EC50: Plasmodium falciparum, read-out: P. falciparum C235 pEC50 (converted).
Data set [4] has as its system P. falciparum D6. Kind of data set: microbe, parasite or virus in culture. It counts as cell-based, Plasmodium falciparum. The following applies: for P. falciparum D6 pEC50: D6 strain; for EC50: Plasmodium falciparum, D6, read-out: P. falciparum D6 pEC50 (converted).
Data set [5] has as its system T. brucei cells. Kind of data set: microbe, parasite or virus in culture. The format is cell-based, Trypanosoma brucei. The following applies: for T. brucei pEC50 (within 46%): purchased inhibitors, Table 3; for EC50: Trypanosoma brucei, read-out: T. brucei pEC50 (within 46%) (converted).
The subject of data set [6] is P. falciparum W2. Kind of data set: microbe, parasite or virus in culture. The following applies: for EC50: Plasmodium falciparum, W2, read-out: P. falciparum W2 pEC50 (converted). It counts as cell-based, Plasmodium falciparum.
The subject of data set [7] is HepG2 cells. Kind of data set: HepG2 host cell toxicity assay. It counts as cell-based. The note with it: HepG2, purchased inhibitors, Table 3.
Data set [8] concerns 3T3. Kind of data set: 3T3 host cell toxicity. It counts as cell-based.
Data set [9] deals with L. major intracellular amastigotes. Kind of data set: microbe, parasite or virus in culture. The format is cell-based, Leishmania major. The note with it: for Leishmania Amast pEC50: L. major intracellular amastigotes; for EC50: Leishmania major, read-out: Leishmania Amast pEC50 (converted).
Data set [10] has as its system L. major promastigotes. Kind of data set: microbe, parasite or virus in culture. The format is cell-based, Leishmania major. The note with it: for Leishmania Promast pEC50: L. major promastigotes; for EC50: Leishmania major, read-out: Leishmania Promast pEC50 (converted).

SMILES strings stand for the structures.

Regarding `Nc1nc(N)nc(Nc2ccc([As]3SCC(CO)S3)cc2)n1` (centres unmarked) [melarsoprol], the “mortality rate of melarsoprol treatment” value in data set [1] was not below 5%.
Take `Nc1cccc(-c2cc3c(Oc4cccc(O)c4)ncnc3[nH]2)c1` [NEU-989, TWS11925]: the T. cruzi pEC50 (within 21%) in data set [2] is less than 4.3. In [3], the “P. falciparum C235 pEC50” value stood at 5.1. Also, the “P. falciparum D6 pEC50” value in data set [4] is 5.0. Further, in data set [5], the “T. brucei pEC50 (within 46%)” value is listed as 6.0. The “P. falciparum W2 pEC50” value in data set [6] is 4.7. In addition, in data set [7], the “host cell tox HepG2 pTC50” value is listed as less than 4.4. In addition, in data set [8], the “host cell tox 3T3 pTC50” value is 4.4. In addition, the “Leishmania Amast pEC50” value in [9] is less than 4.8. The “Leishmania Promast pEC50” value in data set [10] is reported as 4.7.
As for `CNC(=O)c1nn(C)c2c1C(C)(C)Cc1cnc(Nc3ccc(N4CCN(C)CC4)cc3)nc1-2` [NEU-969, PHA-8481256], the EC50 in data set [2] was 0.0398 µM; in data set [3], 6310 nM; in data set [4], 6310 nM; in [5] it was 25.1 nM; in data set [6], 7940 nM; in data set [9] it was 5010 nM. Also, the EC50 in data set [10] is 316 nM. Moreover, the “host cell tox HepG2 pTC50” value in data set [7] was 5.0. In [8], the “host cell tox 3T3 pTC50” value is on record as less than 4.
For the compound `COc1cc(OC)c(/C=C/S(=O)(=O)Cc2ccc(OC)c(NCC(=O)O)c2)c(OC)c1` [NEU-973, ON-019109], the EC50 in data set [2] is more than 50.1 µM; in data set [3], more than 20000 nM; in data set [4] it was more than 20000 nM; in data set [5], more than 3160 nM; in data set [6], more than 20000 nM; in [9], more than 15800 nM. For the same compound, in data set [10], the EC50 is more than 25100 nM. In [7], the “host cell tox HepG2 pTC50” value was less than 4.4. In [8], the “host cell tox 3T3 pTC50” value is less than 4.
In the case of `O=c1sn(-c2cccc3ccccc23)c(=O)n1Cc1ccccc1` [NEU-991, tideglusib], the EC50 is 20 µM in [2]; 20000 nM in [3]; 25100 nM in [4]; more than 3160 nM in data set [5]; 25100 nM in data set [6]; more than 15800 nM in data set [9]. Also, the EC50 in data set [10] is 316 nM. For the same compound, in [7], the “host cell tox HepG2 pTC50” value is recorded as less than 4.4. The “host cell tox 3T3 pTC50” value in [8] is 4.1.
Turning to `COc1cc(N2CCC(N3CCN(C)CC3)CC2)ccc1Nc1ncc(Cl)c(Nc2ccccc2S(=O)(=O)C(C)C)n1` [NEU-844, TAE684], the EC50 is 5.01 µM in data set [2]; 501 nM in data set [3]; 501 nM in data set [4]; 100 nM in [5]; 398 nM in [6]; 1260 nM in data set [9]. In [10], the EC50 was 316 nM. For the same compound, in data set [5] (listed as NVP-TAE684), the “T. brucei proliferation activity (in words; active = pEC50 ≥ 6)” value is reported as “potent T. brucei proliferation inhibitors”. For the same compound, the “host cell tox HepG2 pTC50” value in data set [7] stood at 5.3. Further, the “host cell tox 3T3 pTC50” value in [8] is 4.6.
With `Cc1ncc(-c2ccnc(Nc3ccc(S(C)(=O)=O)cc3)n2)n1C(C)C` [NEU-985, AZD543821], the EC50 is 1.58 µM in data set [2]; 1260 nM in [3]; 1260 nM in data set [4]; 31.6 nM in [5]; 1000 nM in data set [6]; 2510 nM in [9]. Moreover, in data set [10], the EC50 is 398 nM. In addition, the “host cell tox HepG2 pTC50” value in [7] was determined as 4.9. Further, the “host cell tox 3T3 pTC50” value in data set [8] is given as less than 4.
On to `O=C(NC1CCNCC1)c1n[nH]cc1NC(=O)c1c(Cl)cccc1Cl` [NEU-982, AT751918], for which the EC50 in [2] was 1.26 µM; in data set [3], 316 nM; in data set [4], 1260 nM; in data set [5], 316 nM; in [6], 794 nM; in data set [9] it was more than 15800 nM. Also, the EC50 in data set [10] is more than 25100 nM. The “host cell tox HepG2 pTC50” value in [7] is less than 4.4. For the same compound, the “host cell tox 3T3 pTC50” value in [8] is reported as less than 4.
In turn, `CCc1cc(Nc2nccc(-c3c(-c4ccc(OC)c(C(=O)Nc5c(F)cccc5F)c4)nc4ccccn34)n2)c(OC)cc1N1CCC(N2CCN(S(C)(=O)=O)CC2)CC1` [NEU-970, GSK1904529A7] yielded a T. cruzi pEC50 (within 21%) in data set [2] of less than 4.3. The “P. falciparum C235 pEC50” value in data set [3] is reported as 6.9. Besides, the “P. falciparum D6 pEC50” value in data set [4] is given as 6.8. The “T. brucei pEC50 (within 46%)” value in data set [5] worked out at 5.9. For the same compound, in data set [6], the “P. falciparum W2 pEC50” value was found to be 7.0. Moreover, the “host cell tox HepG2 pTC50” value in data set [7] is on record as less than 4.4. Moreover, the “host cell tox 3T3 pTC50” value in data set [8] is less than 4. Besides, the “Leishmania Amast pEC50” value in data set [9] is given as 5.5. Also, in data set [10], the “Leishmania Promast pEC50” value was less than 4.9.
For the compound `CC(C)(C)c1cnc(CSc2cnc(NC(=O)C3CCNCC3)s2)o1` [NEU-984, SNS-03219, 20], the EC50 in data set [2] was more than 50.1 µM; in data set [3], 2000 nM; in data set [4] it was 5010 nM; in [5], 126 nM; in data set [6], 3160 nM; in data set [9] it was more than 15800 nM. Further, in data set [10], the EC50 was more than 25100 nM. In [7], the “host cell tox HepG2 pTC50” value was less than 4.4. For the same compound, in data set [8], the “host cell tox 3T3 pTC50” value is less than 4.
